Data as given in publication PMC12679472, “The structural requirements of 3,5-substituted oxindoles that determine selective AMPK or GSK3β inhibition” (RSC Medicinal Chemistry, 2025).
Read-outs that look alike come from different tables or passages of the source.

Columns and labels:
[1] = target: purified recombinant human AMPK (α1β1γ1) (Homo sapiens, UniProt Q13131); assay: radiometric [33P]-ATP kinase activity assay, AMPK; format: biochemical; conditions: for Hill Slope: AMPK curve fit, kinase profiling report; for % Activity (enzyme activity relative to DMSO controls): AMPK; for inhibition of AMPK activity (in words): up to 10 μM; for HillSlope (GraphPad Prism best-fit, AMPK) / LogEC50 (GraphPad Prism best-fit, AMPK): sigmoidal dose-response variable slope; for LogEC50 (GraphPad Prism best-fit, AMPK): concentration axis Log(M)
[2] = target: purified recombinant human AMPK (α1β1γ1) (Homo sapiens, UniProt P54619+Q13131+Q9Y478); assay: radiometric [33P]-ATP kinase activity assay, AMPK; format: biochemical; conditions: for IC50: 10 μM [33P]-ATP; for EC50: concentration axis Log(M)
[3] = target: purified recombinant human GSK3β (Homo sapiens, UniProt P49841); assay: radiometric [33P]-ATP kinase activity assay, GSK3β; conditions: for Hill Slope: GSK3β curve fit, kinase profiling report; for HillSlope (GraphPad Prism best-fit, GSK3β) / LogEC50 (GraphPad Prism best-fit, GSK3β): sigmoidal dose-response variable slope
cellular AMPK activity = conditions: cited from earlier work
AMPK = test system: AMPK; design: method as in PMID 23410232; conditions: at 10 μM; cited from earlier work
GSK3β = test system: GSK3β; design: method as in PMID 23410232; conditions: at 10 μM; cited from earlier work
[4] = 10-dose singlet, 3-fold dilutions from 10 μM, read-out: AMPK IC50

Sequence of purified recombinant human GSK3β (P49841 whole entry): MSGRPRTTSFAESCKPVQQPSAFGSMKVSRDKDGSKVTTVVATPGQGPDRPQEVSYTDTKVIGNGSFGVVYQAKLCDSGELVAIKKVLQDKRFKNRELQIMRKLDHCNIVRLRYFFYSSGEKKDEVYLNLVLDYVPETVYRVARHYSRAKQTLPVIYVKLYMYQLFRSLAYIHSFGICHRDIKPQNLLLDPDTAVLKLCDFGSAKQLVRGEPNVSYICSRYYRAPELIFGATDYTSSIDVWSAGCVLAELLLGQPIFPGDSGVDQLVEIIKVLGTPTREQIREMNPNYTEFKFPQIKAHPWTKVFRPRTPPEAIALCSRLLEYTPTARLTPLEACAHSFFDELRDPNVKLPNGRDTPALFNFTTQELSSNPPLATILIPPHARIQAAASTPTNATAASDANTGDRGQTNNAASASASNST
Sequence of purified recombinant human AMPK (α1β1γ1) (Homo sapiens, UniProt Q13131) (Q13131 whole entry): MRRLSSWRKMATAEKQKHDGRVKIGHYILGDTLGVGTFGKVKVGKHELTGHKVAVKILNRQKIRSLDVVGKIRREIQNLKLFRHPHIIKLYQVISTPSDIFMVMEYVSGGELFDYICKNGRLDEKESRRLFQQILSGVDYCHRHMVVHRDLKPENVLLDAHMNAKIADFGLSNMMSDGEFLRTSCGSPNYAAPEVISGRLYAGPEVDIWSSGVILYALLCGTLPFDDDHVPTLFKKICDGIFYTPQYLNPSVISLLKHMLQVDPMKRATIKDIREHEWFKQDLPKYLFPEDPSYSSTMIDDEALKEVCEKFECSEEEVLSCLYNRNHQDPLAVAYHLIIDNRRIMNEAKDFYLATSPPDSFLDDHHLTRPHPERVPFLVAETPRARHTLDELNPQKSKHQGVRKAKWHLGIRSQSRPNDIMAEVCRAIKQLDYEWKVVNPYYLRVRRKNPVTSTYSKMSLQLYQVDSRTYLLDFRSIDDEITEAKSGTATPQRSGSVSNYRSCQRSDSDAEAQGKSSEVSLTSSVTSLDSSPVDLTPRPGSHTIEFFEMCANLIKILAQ
Sequence of purified recombinant human AMPK (α1β1γ1) (Homo sapiens, UniProt Q13131) (Q9Y478 whole entry partner): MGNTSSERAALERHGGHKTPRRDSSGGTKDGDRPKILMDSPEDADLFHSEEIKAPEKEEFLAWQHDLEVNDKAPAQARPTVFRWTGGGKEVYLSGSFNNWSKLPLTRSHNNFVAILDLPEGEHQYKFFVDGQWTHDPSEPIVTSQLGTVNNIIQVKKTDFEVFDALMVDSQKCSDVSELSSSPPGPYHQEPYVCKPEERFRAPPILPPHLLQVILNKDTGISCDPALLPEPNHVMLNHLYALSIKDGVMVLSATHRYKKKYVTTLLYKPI
Sequence of purified recombinant human AMPK (α1β1γ1) (Homo sapiens, UniProt Q13131) (P54619 whole entry partner): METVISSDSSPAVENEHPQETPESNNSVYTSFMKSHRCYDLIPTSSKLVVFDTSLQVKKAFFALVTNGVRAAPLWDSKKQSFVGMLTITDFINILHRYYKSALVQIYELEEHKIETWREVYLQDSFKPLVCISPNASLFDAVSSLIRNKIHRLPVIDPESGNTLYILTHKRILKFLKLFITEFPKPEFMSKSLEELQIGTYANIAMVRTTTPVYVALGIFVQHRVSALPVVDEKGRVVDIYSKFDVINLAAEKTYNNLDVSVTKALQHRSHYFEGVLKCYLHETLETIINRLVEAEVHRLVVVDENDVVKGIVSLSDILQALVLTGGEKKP
Sequence of purified recombinant human AMPK (α1β1γ1) (Homo sapiens, UniProt P54619+Q13131+Q9Y478) (Q13131 whole entry): as the sequence (Q13131 whole entry) above
Sequence of purified recombinant human AMPK (α1β1γ1) (Homo sapiens, UniProt P54619+Q13131+Q9Y478) (Q9Y478 whole entry partner): as the sequence (Q9Y478 whole entry partner) above
Sequence of purified recombinant human AMPK (α1β1γ1) (Homo sapiens, UniProt P54619+Q13131+Q9Y478) (P54619 whole entry partner): as the sequence (P54619 whole entry partner) above

| Hill Slope [1] | IC50 [2, 4] | inhibition of AMPK activity (in words) ([1]; 10 μM [33P]-ATP) | IC50 [3] | Hill Slope [3] | HillSlope (GraphPad Prism best-fit, GSK3β) [3] | SMILES | further results |
| --- | --- | --- | --- | --- | --- | --- | --- |
| -0.77 | – | – | – | – | – | Cn1cc(C2=C(c3cn(CCCSC(=N)N)c4ccccc34)C(=O)NC2=O)c2ccccc21 [RO-31-8220, reference compound] | % Activity (enzyme activity relative to DMSO controls) ([1]; Ro-31-8220 Conc. 1.02E-09 M): 91.37%; % Activity (enzyme activity relative to DMSO controls) ([1]; Ro-31-8220 Conc. 2.00E-05 M): 5.65%; % Activity (enzyme activity relative to DMSO controls) ([1]; Ro-31-8220 Conc. 2.22E-06 M): 9.47%; % Activity (enzyme activity relative to DMSO controls) ([1]; Ro-31-8220 Conc. 2.47E-07 M): 25.85%; % Activity (enzyme activity relative to DMSO controls) ([1]; Ro-31-8220 Conc. 2.74E-08 M): 71.55%; % Activity (enzyme activity relative to DMSO controls) ([1]; Ro-31-8220 Conc. 3.05E-09 M): 90.55%; % Activity (enzyme activity relative to DMSO controls) ([1]; Ro-31-8220 Conc. 6.67E-06 M): 3.95%; % Activity (enzyme activity relative to DMSO controls) ([1]; Ro-31-8220 Conc. 7.41E-07 M): 12.59%; % Activity (enzyme activity relative to DMSO controls) ([1]; Ro-31-8220 Conc. 8.23E-08 M): 51.73%; % Activity (enzyme activity relative to DMSO controls) ([1]; Ro-31-8220 Conc. 9.14E-09 M): 78.23%; IC50 ([1]; supplement kinase profiling report, 10 μM [33P]-ATP, read-out: IC50 (M) AMPK(A1/B1/G1)): 8.36e-08 M |
| – | > 1e-05 M | did not demonstrate AMPK inhibition | 8.29 µM | -0.95 | -0.9519 | CN1CCN(Cc2ccc(C=C3C(=O)Nc4ccc(C#N)cc43)cc2)CC1 (mixture of isomers) [Compound 12, (E/Z)-5-Cyano-3-(4-((4-methylpiperazin-1-yl)methyl)benzylidene)oxindole] | EC50 [3]: 8.29 µM; LogEC50 (GraphPad Prism best-fit, GSK3β) [3]: -5.082 |
| – | – | – | – | – | – | CNC(=O)c1ccccc1Oc1nc(Nc2cc(OC)c(OC)c(OC)c2)ncc1Br [SBI-0206965] | concentration required to inhibit cellular AMPK activity (cellular AMPK activity): > 10 µM |
| – | > 1e-05 M | did not demonstrate AMPK inhibition | > 10 µM | – | – | CN1CCN(Cc2ccc(C=C3C(=O)Nc4ccc(CCC#N)cc43)cc2)CC1 (mixture of isomers) [Compound 8, (E/Z)-5-(2-Cyanoethyl)-3-(4-((4-methylpiperazin-1-yl)methyl)benzylidene)oxindole] | – |
| – | > 1e-05 M | did not demonstrate AMPK inhibition | > 10 µM | – | – | N#CCCc1ccc2c(c1)C(=Cc1ccc(CN3CCOCC3)cc1)C(=O)N2 (mixture of isomers) [Compound 7, (E/Z)-5-(2-Cyanoethyl)-3-(4-(morpholinomethyl)benzylidene)oxindole] | – |
| – | > 1e-05 M | – | > 10 µM | – | – | O=C1Nc2ccc(CCN3CCCCC3)cc2/C1=C/c1ccc(CN2CCOCC2)cc1 [Compound 9, (Z)-5-(2-(Piperidin-1-yl)ethyl)-3-(4-(morpholinomethyl)benzylidene)oxindole] | – |
| – | > 1e-05 M | – | > 10 µM | – | – | CN1CCN(Cc2ccc(/C=C3\C(=O)Nc4ccc(CCN5CCCCC5)cc43)cc2)CC1 [Compound 10, (Z)-5-(2-(Piperidin-1-yl)ethyl)-3-(4-((4-methylpiperazin-1-yl)methyl)benzylidene)oxindole] | – |
| – | – | – | – | – | – | c1cc(-c2cnn3cc(-c4ccc(OCCN5CCCCC5)cc4)cnc23)ccn1 [Compound C, dorsomorphin] | concentration required to inhibit cellular AMPK activity (cellular AMPK activity): > 10 µM |
| -0.86 | 5.04e-06 M | demonstrated AMPK inhibition | > 10 µM | – | – | N#CCCc1ccc2c(c1)/C(=C/c1cc(CN3CCOCC3)c[nH]1)C(=O)N2 [Compound 14, (Z) 5-(2-cyanoethyl)-3-((4-(morpholinomethyl)-1H-pyrrol-2-yl)methylene)oxindole] | EC50 ([2]; sigmoidal dose-response variable slope, Bottom = 0, read-out: EC50 (GraphPad Prism best-fit, % activity against AMPK)): 5.04e-06 M; HillSlope (GraphPad Prism best-fit, AMPK) [1]: -0.8552; LogEC50 (GraphPad Prism best-fit, AMPK) [1]: -5.298; inhibition of GSK3β kinase activity (in words) ([3]; up to 10 μM, 10 μM [33P]-ATP): did not show detectable GSK3β inhibition |
| – | > 1e-05 M | did not demonstrate AMPK inhibition | 3.37 µM | -0.95 | -0.9491 | N#Cc1ccc2c(c1)C(=Cc1ccc(CN3CCOCC3)cc1)C(=O)N2 (mixture of isomers) [Compound 11, (E/Z)-5-Cyano-3-(4-(morpholinomethyl)benzylidene)oxindole] | EC50 [3]: 3.37 µM; LogEC50 (GraphPad Prism best-fit, GSK3β) [3]: -5.472 |
| -0.78 | – | – | – | -0.78 | -0.7769 | CCN(CC)CCNC(=O)c1c(C)[nH]c(/C=C2\C(=O)Nc3ccc(F)cc32)c1C [Sunitinib, sunitinib, reference compound] | HillSlope (GraphPad Prism best-fit, AMPK) [1]: -0.7785; LogEC50 (GraphPad Prism best-fit, AMPK) [1]: -7.395; concentration required to inhibit cellular AMPK activity (cellular AMPK activity): < 5 µM |
| -0.38 | – | demonstrated AMPK inhibition | 4.92 µM | -0.59 | -0.5892 | N#Cc1ccc2c(c1)/C(=C/c1cc(CN3CCOCC3)c[nH]1)C(=O)N2 [Compound 13, (Z)-5-Cyano-3-((4-(morpholinomethyl)-1H-pyrrol-2-yl)methylene)oxindole] | EC50 ([2]; sigmoidal fit, extrapolated beyond 10 μM, read-out: EC50 (GraphPad Prism best-fit, % activity against AMPK), beyond top dose): 1.87e-05 M; IC50 ([2]; supplement kinase profiling report, read-out: IC50 (M) AMPK(A1/B1/G1)): > 1e-05 M; HillSlope (GraphPad Prism best-fit, AMPK) [1]: -0.3757; LogEC50 (GraphPad Prism best-fit, AMPK), beyond top dose ([1]; sigmoidal fit, extrapolated beyond 10 μM): -4.728; EC50 [3]: 4.92 µM; LogEC50 (GraphPad Prism best-fit, GSK3β) [3]: -5.308 |
| – | – | – | – | – | – | N#Cc1ccc2[nH]c(O)c(-c3ccc(CN4CCOCC4)cn3)c2c1 [AZD1080] | inhibition of AMPK kinase activity (AMPK): more than 50%; inhibition of GSK3β kinase activity (GSK3β): more than 50% |
